Data as given in patent US11648252B2, “Methotrexate for use as a medicament” (GF SERVICE S.R.L., priority 2018, dated 2023).

Tests used:
[1] = test system: rheumatoid arthritis (RA); details: treating rheumatoid arthritis; cited from earlier work
patients = details: long-term data; cited from earlier work
[2] = cited from earlier work
[3] = test system: resistant rheumatoid arthritis; details: oral, 5 to 10 to 15 mg/m^2 within 16 weeks; 36 test persons; cited from earlier work
[4] = test system: refractory rheumatoid arthritis; details: IV 500 mg/m^2, 24 weeks, plus oral folinic acid 25 mg/m^2; 8 test persons; inefficacy, GI intolerance or sciatica; cited from earlier work
[5] = test system: active rheumatoid arthritis; details: intramuscular, 15 to 45 mg/m^2 within 22 weeks, plus 5 mg folinic acid per week; 27 test persons; recurrent chest infections or inefficacy; cited from earlier work
patients with RA [6] = assay: STEMETRA open-label pilot study, efficacy (DAS28) of step-down SC-MTX; assay type: in vivo, human
Protocol: (§1) The STEp-down MEthotrexate Therapy in Rheumatoid Arthritis (STEMETRA) was an open-label, monocentric, pilot study with the primary aim of assessing the safety and the tolerability of high dose subcutaneous (SC)-MTX in patients with RA. […] In view of the exploratory nature of this study, the expected enrolment was of 10 patients. Patients received a SC-MTX commercially available formulation (Reumaflex®, Alfasigma, Italy), dispensed as prefilled syringes of 25 mg, 20 mg, and 15 mg. For reaching the dosage of 50 mg at the beginning of the study, patients injected two SC-MTX 25 mg syringes consecutively.
In the present experimental examples, the Disease Activity Score based on 28 joints (DAS28) testing was carried out according to the protocols described in Fransen J. et al., “Rheumatoid Arthritis measures: Disease Activity Score (DAS), Disease Activity Score-28 (DAS28), Rapid Assessment of Disease Activity in Rheumatology (RADAR), and Rheumatoid Arthritis Disease Activity Index (RADAI)”, Arthritis Rheum 2003; 49, Suppl 9: pages 214 to 224, as well as described in van der Heijde D. M. et al., “Development of a disease activity score based on judgment in clinical practice by rheumatologists”, J Rheumatol. 1993 March, 20(3), pages 579 to 581.
(§2) The protocol treatment schedule comprised administration of SC-MTX 50 mg/week for 4 consecutive weeks, followed by 25 mg/week for 4 weeks, and then 15 mg/week for 4 weeks. All patients received oral supplementation of folinic acid (leucovorin) 12 mg, twelve hours after the injection of SC-MTX. All patients had to be MTX-naïve; previous treatment with other conventional synthetic disease modifying anti-rheumatic drugs (cs)DMARDs was allowed only if they have already been withdrawn, for inefficacy or tolerability, before the baseline visit.
Eligible patients were≥18 years old affected by rheumatic arthritis (RA), according to the 2010 American College of […]/European league against rheumatism (ACR/EULAR) classification criteria^12, naïve to MTX and with an active disease, defined as a value of disease activity score (DAS)28≥3.2, with at least four tender joints and four swollen joints. Main exclusion criteria were: ongoing or previous treatment with bDMARDs, severe anaemia (defined as haemoglobin<[…]), severe thrombocytopenia (defined as platelets count<100,000/mm^3), severe leucopoenia or neutropenia (defined as white blood cells count<3,000 mm^3 or granulocytes count<1,000 mm^3), severe hepatic dysfunction [defined as aspartate aminotransferase (AST) or alanine aminotransferase (ALT)[…] the upper limit of normal(ULN)], renal function impairment (defined as creatinine clearance<40 mL/min), alcohol intake>70 g/week, pregnancy or breastfeeding, ongoing severe infections, previous infection with Hepatitis B (HBV) or Hepatitis C (HCV), positivity of Quantiferon or Mantoux test.
During each visit, disease activity score based on 28 joints (DAS28) [with both erythrocytes sedimentation rate (ESR) and C-reactive protein (CRP)], simplified disease activity index (SDAI), clinical disease activity index (CDAI), and the Health Assessment Questionnaire (HAQ) were evaluated and calculated as efficacy measures.

patients with RA [7] = assay: STEMETRA open-label pilot study, safety and tolerability (adverse events, CTCAE v4.0); assay type: in vivo, human
Protocol: as §1, §2
If a patient experience fatigue (with an intensity≥grade 2), he/she could receive a double dose of folinic acid: 12 mg at 12 and 24 hours after SC-MTX, respectively.
All the adverse events (AE) occurred during the study and follow-up periods were recorded according to the Common Terminology Criteria for Adverse Events (version 4.0).

rheumatoid arthritis [8] = details: IV, initial 40 mg/m^2, final 26 mg/m^2; 10 test persons; infected plantar or severe nausea; cited from earlier work
rheumatoid arthritis [9] = details: IV 50 mg/week for 2 to 20 weeks; 14 test persons; oral ulceration, GI symptoms, liver enzyme abnormalities; cited from earlier work
[10] = week 12, nine patients, step-down SC-MTX 50/25/15 mg/week, oral folinic acid 12 mg
[11] = nine patients, study and follow-up periods

For CN(Cc1cnc2nc(N)nc(N)c2n1)c1ccc(C(=O)N[C@@H](CCC(=O)O)C(=O)O)cc1 [MTX, (2S)-2-[[4-[(2,4-diaminopteridin-6-yl)methyl-methylamino]benzoyl]amino]-pentanedioic acid], the “efficacy rate as a monotherapy” value [1] is listed as “about 35%”, the “patients who could experience liver enzymes elevation” value (patients) is listed as “more than 10%” and the “patients who had to stop MTX because of liver enzymes elevation” value (patients) is listed as “less than 5%”. The “dose over which absorption is known to plateau” value ([2]; oral (OR-MTX)) was 15 mg, the “dosage at which oral absorption starts to plateau” value ([2]; oral) was 15 mg/week and the “test persons who discontinued the treatment due to high toxicity” value [3] was 33%. For the same compound, the “test persons who withdrew the treatment” value [4] was 37%, the “test persons who discontinued the treatment” value [5] was 18.5% and the “patients with a significant reduction of DAS28” value (patients with RA [6]; step-down SC-MTX regimen, discussion summary) was roughly 90%. For the same compound, the “patients showing a reduction in DAS28>1.2 from baseline” value (patients with RA [6]; week 12, 8 out of 9 patients, step-down SC-MTX 50/25/15 mg/week, oral folinic acid 12 mg) was 88.8%, the “patients who achieved DAS28 remission” value (patients with RA [6]; week 12, nine patients, SC-MTX 50 mg/week 4 weeks, then 25 mg/week 4 weeks, then 15 mg/week 4 weeks, oral folinic acid 12 mg) was 44.4% and the “patients showing moderate disease activity (DAS28)” value (patients with RA [6]; [10]) was 11.1%. The “patients who reached low disease activity (DAS28)” value (patients with RA [6]; [10]) was 22.2%, the “patients who still had high disease activity (DAS28)” value (patients with RA [6]; [10]) was 22.2% and the “increase of alanine aminotransferase (ALT)” value (patients with RA [7]; Patient #6, week 4, resolved spontaneously, normal at week 8) was less than 2 ULN. The “number of patients in whom AEs occurred” value (patients with RA [7]; [11]) was 4, the “total number of AEs” value (patients with RA [7]; [11]) was 5 and the “severe AEs” value (patients with RA [7]; nine patients, whole study) was “none”. The “number of patients with a mild (and transitory) increase in ALT” value (patients with RA [7]; week 4) was “one”, the “AEs occurring in the first 4 weeks” value (patients with RA [7]; while taking SC-MTX 50 mg/week) was “none” and the “test persons who did not complete the study” value (rheumatoid arthritis [8]) was “Two”. The “test persons who had to reduce or discontinue the treatment due to toxicity” value (rheumatoid arthritis [9]) was 35%.
